“And” between values parts separate entries of the source, which are not always exact repeats. Equal entries are not always repeated. “Also recorded” adds a separate entry of the source. Where two headings read alike, the source gives them in different places.
What was measured:
human saphenous vein = test: Vasodilating effect on human saphenous vein pre-contracted with phenylephrine; details: for IC50: phenylephrine 3×10^−6M
Protocol: FIG. 2 represent the vasodilating effect of dioclein in the human saphenous vein, pre-contracted with phenylephrine (3×10^−6M) in the presence or absence of functional endothelium. The relaxation data represent the percentage of reduction of the contraction by phenylephrine in response to dioclein and have been expressed on average±SEM. *P<0.05 (two-way ANOVA with post-test comparison BONFERRONI. The vessels of 8 patients with and 8 without functional endothelium were analyzed.
The data represent the percentage of reduction of the contraction by phenylephrine in response to dioclein and have been expressed average±SEM. *P<0.05. ***P<0.001 (two-way ANOVA with post-test comparison BONFERRONI). One has analyzed 8 vessels of the control group, 5 vessels of the group incubated with H-89.
FIG. 4 illustrates the effect of Rp-8-pCPT cGMPS (10 μM) on the relaxation induced by dioclein on the human saphenous vein without functional endothelium, pre-contracted with phenylephrine (3×10^−6M). The data represent the percentage of reduction of the contraction with phenylephrine in response to dioclein and have been expressed in average±SEM. ***P<0.001 (two-way ANOVA with post-test comparison of BONFERRONI). One has analyzed 8 vessels of the control group and 5 vessels of the group incubated with Rp-8-pCPT cGMPS.
The data represent the percentage of reduction of the contraction with phenylephrine in response to dioclein and have been expressed in average±SEM. One has analyzed 8 vessels of the dioclein group, 7 vessels of the 8-MM-IBMX group and 9 vessels of the vinpocetine group.
FIG. 2 illustrates the effect of the flavonoids of the present invention on the human saphenous vein. […] FIG. 3 illustrates the effect of dioclein on the human saphenous vein without functional endothelium, in the absence and in the presence of an inhibitor selective of protein Kinase A, which is the intracellular receptor of AMPc.

PDE5 [1] = biological target: PDE5 (Homo sapiens, UniProt O76074); details: cited from earlier work
PDE1 [2] = details: cited from earlier work
PDE5 [3] = biological target: T1, PDE5 (Bos taurus, UniProt Q28156); test: PDE5 inhibition, enzyme isolated from smooth muscle of ox aorta; format: biochemical
T1 construct: isolated from the smooth muscle of ox aorta; from tissue; host or cells: smooth muscle of ox aorta

Solubility = format: physicochemical
PDE4 = PDE4 inhibition, enzyme isolated from smooth muscle of ox aorta; format: biochemical
PDE2 = biological target: T2, PDE2 (Homo sapiens, UniProt O00408); test: PDE2 inhibition, enzyme isolated from human platelets; format: biochemical
T2 construct: on the PDE2 isolated from human platelets; from tissue; host or cells: human platelets
T2 sequence (O00408 whole entry): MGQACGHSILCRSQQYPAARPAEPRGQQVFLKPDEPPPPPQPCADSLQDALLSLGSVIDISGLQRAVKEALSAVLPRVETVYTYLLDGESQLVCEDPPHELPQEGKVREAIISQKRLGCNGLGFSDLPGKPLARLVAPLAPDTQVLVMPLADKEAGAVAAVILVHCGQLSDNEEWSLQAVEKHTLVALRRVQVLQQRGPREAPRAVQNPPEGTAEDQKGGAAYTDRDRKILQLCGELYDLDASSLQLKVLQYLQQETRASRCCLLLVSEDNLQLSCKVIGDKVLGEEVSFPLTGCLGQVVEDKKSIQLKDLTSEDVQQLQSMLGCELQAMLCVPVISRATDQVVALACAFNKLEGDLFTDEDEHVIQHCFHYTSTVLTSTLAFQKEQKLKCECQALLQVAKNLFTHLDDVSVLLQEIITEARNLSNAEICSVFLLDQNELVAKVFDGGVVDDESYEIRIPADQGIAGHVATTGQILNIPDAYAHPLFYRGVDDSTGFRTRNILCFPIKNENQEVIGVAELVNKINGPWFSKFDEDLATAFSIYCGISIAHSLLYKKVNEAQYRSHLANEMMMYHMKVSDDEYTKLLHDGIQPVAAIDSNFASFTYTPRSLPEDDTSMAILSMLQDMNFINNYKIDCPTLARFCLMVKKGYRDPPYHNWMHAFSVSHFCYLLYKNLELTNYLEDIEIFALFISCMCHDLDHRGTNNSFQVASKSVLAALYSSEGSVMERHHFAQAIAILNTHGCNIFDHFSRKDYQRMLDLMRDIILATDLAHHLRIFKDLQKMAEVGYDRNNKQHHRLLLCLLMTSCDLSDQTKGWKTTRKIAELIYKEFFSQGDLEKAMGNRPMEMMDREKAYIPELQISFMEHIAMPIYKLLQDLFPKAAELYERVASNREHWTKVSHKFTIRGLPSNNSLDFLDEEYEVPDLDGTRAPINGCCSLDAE

PDE1 [4] = test: PDE1 inhibition, enzyme isolated from smooth muscle of ox aorta; format: biochemical; details: PDE1 versus PDE2-PDE5
PDE1 [5] = system: T3, PDE1; test: as above; format: biochemical
T3 construct: IC50 PDE1 − calmodulin; other: without calmodulin; Ki PDE1 − calmodulin; other: with calmodulin; Ki PDE1 + calmodulin; other: versus literature value of 8-MM-IBMX; times more pot

[6] = system: arterial pressure of mice; test: Hypotensor effect on arterial pressure of mice; format: in vivo; details: dissolved with DMSO
Protocol: FIG. 7 is a representative example of the effect of dioclein (2.5 mg/kg) and of the inclusion product of dioclein in cyclodextrin (inclusion: 2.5 mg/kg), applied by intraperitoneal route, on the arterial pressure of mice. In the highlight we can see the average±SEM of the maximum effect achieved on 6 different mice. In these experiments dioclein and the inclusion product of dioclein in the cyclodextrin were dissolved with the aid of DMSO.
FIG. 8 is a representative example of the effect of dioclein (10 mg/kg) and of the inclusion product of dioclein in cyclodextrin (inclusion: 10 mg/kg), applied by oral route, on the arterial pressure of mice. In the highlight one can see the average±SEM of maximum effect achieve in 3 different mice. In this experiments dioclein and the inclusion product of dioclein in cyclodextrin were dissolved with the aid of DMSO.
FIG. 9 is a representative example of the effect of the inclusion product of dioclein in cyclodextrin (inclusion; 10 mg/kg), solubilized in water, applied by oral route, on the arterial pressure of mice.
FIG. 7 illustrates the effect of dioclein and of dioclein included in cyclodextrin, dissolved with the aid of DMSO on the arterial pressure of mice. […] FIG. 8 illustrates the effect of dioclein and of dioclein included in cyclodextrin dissolved with the aid of DMSO on the arterial pressure of mice when applied by oral route (gavage). […]

PDE3 = biological target: T4, PDE3 (Bos taurus, UniProt A0A3Q1M1E8); test: PDE3 inhibition, enzyme isolated from smooth muscle of ox aorta; format: biochemical
T4 sequence (A0A3Q1M1E8 1-1126): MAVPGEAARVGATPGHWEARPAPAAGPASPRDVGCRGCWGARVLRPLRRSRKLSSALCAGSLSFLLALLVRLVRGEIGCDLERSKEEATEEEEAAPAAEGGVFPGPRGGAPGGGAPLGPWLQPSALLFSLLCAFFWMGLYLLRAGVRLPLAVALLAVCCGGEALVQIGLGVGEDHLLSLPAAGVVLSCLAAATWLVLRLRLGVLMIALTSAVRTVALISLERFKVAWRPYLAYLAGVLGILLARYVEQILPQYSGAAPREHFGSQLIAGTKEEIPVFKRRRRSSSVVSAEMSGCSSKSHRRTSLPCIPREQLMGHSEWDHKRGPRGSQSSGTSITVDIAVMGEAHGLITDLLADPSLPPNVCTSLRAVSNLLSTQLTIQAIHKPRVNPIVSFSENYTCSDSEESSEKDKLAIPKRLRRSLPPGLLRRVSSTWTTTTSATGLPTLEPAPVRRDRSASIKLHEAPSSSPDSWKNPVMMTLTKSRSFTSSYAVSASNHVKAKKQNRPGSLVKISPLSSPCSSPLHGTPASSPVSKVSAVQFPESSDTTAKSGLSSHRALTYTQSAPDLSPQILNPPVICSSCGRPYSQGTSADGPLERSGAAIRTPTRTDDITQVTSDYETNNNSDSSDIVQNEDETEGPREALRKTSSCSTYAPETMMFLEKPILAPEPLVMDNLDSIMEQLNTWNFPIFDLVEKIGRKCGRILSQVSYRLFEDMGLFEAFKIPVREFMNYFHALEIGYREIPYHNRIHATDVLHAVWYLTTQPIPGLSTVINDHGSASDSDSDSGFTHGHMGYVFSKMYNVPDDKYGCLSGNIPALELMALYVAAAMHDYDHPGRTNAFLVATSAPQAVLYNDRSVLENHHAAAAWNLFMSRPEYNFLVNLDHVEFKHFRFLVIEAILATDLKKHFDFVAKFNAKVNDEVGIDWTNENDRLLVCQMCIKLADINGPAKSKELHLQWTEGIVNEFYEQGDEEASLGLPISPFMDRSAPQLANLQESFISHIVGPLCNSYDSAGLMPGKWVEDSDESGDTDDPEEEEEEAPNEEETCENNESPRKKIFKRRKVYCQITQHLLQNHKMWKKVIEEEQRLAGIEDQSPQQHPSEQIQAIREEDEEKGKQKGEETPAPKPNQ

[7] = biological target: potassium channels of the type sensitive to high-conductance calcium (Homo sapiens, UniProt Q12791); details: cited from earlier work
Sequence of potassium channels of the type sensitive to high-conductance calcium (Q12791 whole entry): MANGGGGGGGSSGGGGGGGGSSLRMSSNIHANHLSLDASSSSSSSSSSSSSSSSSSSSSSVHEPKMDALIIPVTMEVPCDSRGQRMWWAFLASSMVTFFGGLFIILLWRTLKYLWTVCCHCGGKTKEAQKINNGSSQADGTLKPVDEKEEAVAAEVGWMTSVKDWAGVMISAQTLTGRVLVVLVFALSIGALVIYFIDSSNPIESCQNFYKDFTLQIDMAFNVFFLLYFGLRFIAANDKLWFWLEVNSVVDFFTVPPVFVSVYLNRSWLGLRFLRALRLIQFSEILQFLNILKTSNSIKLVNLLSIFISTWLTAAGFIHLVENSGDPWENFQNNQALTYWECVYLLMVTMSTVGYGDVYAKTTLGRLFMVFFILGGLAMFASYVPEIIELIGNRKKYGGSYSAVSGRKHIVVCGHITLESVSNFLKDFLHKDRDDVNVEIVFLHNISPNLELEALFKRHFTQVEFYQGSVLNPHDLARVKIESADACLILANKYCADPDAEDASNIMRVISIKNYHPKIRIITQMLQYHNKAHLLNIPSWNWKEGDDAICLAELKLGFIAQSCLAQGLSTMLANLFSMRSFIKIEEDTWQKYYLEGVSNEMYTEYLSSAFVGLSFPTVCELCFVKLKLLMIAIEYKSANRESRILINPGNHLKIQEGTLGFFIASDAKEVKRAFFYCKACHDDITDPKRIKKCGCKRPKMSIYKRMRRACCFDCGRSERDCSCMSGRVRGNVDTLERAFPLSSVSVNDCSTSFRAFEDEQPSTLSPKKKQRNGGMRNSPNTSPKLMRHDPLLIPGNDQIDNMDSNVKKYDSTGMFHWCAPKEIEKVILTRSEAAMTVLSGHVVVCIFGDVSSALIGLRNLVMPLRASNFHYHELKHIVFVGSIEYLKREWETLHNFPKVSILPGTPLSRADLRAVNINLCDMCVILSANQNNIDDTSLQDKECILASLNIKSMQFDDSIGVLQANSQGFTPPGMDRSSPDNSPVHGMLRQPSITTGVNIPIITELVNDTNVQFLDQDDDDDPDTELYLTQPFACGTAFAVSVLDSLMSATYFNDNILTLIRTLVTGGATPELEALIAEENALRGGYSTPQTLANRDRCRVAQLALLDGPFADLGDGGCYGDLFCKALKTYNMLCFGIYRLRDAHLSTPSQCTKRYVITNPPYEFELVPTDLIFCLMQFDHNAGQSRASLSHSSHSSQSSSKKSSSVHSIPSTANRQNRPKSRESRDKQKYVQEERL

PDE7 = PDE7 (Homo sapiens, UniProt Q9NP56); details: at the same concentrations (higher than 30 μM); cited from earlier work
Sequence of PDE7 (Q9NP56 whole entry): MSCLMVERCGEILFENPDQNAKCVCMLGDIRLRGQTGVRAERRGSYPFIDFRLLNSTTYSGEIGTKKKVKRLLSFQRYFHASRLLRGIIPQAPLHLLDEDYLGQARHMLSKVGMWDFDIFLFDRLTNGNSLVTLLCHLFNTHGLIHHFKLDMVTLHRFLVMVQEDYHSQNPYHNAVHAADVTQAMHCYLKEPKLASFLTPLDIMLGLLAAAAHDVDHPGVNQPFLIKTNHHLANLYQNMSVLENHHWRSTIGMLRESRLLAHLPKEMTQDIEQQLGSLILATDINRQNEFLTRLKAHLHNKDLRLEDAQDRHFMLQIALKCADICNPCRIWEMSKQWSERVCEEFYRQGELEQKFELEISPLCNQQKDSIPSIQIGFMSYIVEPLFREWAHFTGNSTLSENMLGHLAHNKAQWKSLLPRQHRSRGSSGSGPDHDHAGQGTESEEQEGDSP

PDE1 of bovine tissue = details: cited from earlier work
[8] = without functional endothelium, read-out: Cl50 of vasodilating effect, absence of functional endothelium
[9] = activated, +GMPc, read-out: IC50 Activated PDE2 (+GMPc)
[10] = basal, read-out: IC50 Basal PDE2
[11] = without calmodulin, read-out: IC50 PDE1 − calmodulin

COCc1nc2c([nH]1)c(=O)n(C)c(=O)n2CC(C)C [8-MM-IBMX, 8-methoxymethyl-IBMX]
IC50 (human saphenous vein; [8]): 30.9 ± 16 µM | IC50 (PDE5 [1]): 10 µM | IC50 (PDE1 [2]): 8 µM

COc1cc2c(c(O)c1OC)C(=O)CC(c1cc(O)ccc1O)O2 (stereo not shown) [Dioclein, 5, 2′,5′-trihydroxy-6,7-dimethoxyflavanone]
IC50 (PDE5 [3]): 23 ± 5.5 µM | solubility in DMSO and methanol (Solubility; DMSO, methanol): soluble in DMSO and methanol | solubility in water (Solubility; water): insolubility in water; also recorded: low solubility in water; also recorded: very low solubility in water | IC50 (PDE4): 16.8 ± 1.42 µM | IC50 (PDE2; [9]): 38.2 ± 8.92 µM | IC50 (PDE2; [10]): 100 ± 0.5 µM | IC50 (human saphenous vein; Homo sapiens, with functional endothelium, read-out: Cl50 of vasodilating effect, presence of functional endothelium): 3 ± 0.2 µM | IC50 (human saphenous vein; Homo sapiens, without functional endothelium, read-out: Cl50 of vasodilating effect, absence of functional endothelium): 11 ± 0.4 µM | vasodilating effect in the presence of H-89 (protein kinase A inhibitor) (human saphenous vein; without functional endothelium, H-89 1 μM): displaced to the right | IC50 (human saphenous vein; [8]): 11.1 ± 2.7 µM | selectivity: PDE1 inhibited at concentrations times smaller than for PDE2, PDE3, PDE4 and PDE5 (PDE1 [4]): 20 to 100 times and 20-100 times | IC50 (PDE1 [5]; calmodulin state not stated in text, listed as dioclein, read-out: IC50 of inhibitory effect on PDE1 (running text)): 1.44 ± 0.35 µM | IC50 (PDE1 [5]; calmodulin state not stated in text, read-out: IC50 of inhibitory effect on PDE1 (running text)): 1.4 µM | times more potent than 8-MM-IBMX (PDE1) (PDE1 [5]; versus literature value of 8-MM-IBMX): 8 times | times more potent than vinpocetine (PDE1) (PDE1 [5]; versus literature value of vinpocetine): about 30 times | Ki (PDE1 [5]; with calmodulin): 0.59 µM | Ki (PDE1 [5]; without calmodulin): 0.62 µM | IC50 (PDE1 [5]; [11]): 2.47 ± 0.26 µM | effect on arterial pressure, intraperitoneal route ([6]; 2.5 mg/kg i.p.): reduced the arterial pressure of mice | effect on arterial pressure, oral route (gavage), DMSO ([6]; 10 mg/kg oral): not active via oral route

COc1c(O)c(CC=C(C)C)c2c(c1O)C(=O)[C@H](O)[C@@H](c1ccccc1O)O2 [Floranol]
IC50 (PDE5 [3]): 7.14 µM | IC50 (PDE3): 47.1 ± 5.25 µM | IC50 (PDE4): 11 ± 2.31 µM | IC50 (PDE2; [9]): 65.3 ± 6.87 µM | IC50 (PDE2; [10]): 26.8 ± 4.62 µM | IC50 (PDE1 [5]; with calmodulin, read-out: IC50 PDE1 + calmodulin): 3.06 ± 0.14 µM | IC50 (PDE1 [5]; [11]): 2.75 ± 0.2 µM

CCOC(=O)C1=C[C@]2(CC)CCCN3CCc4c(n1c1ccccc41)[C@@H]32 [Vinpocetine]
direct activation of potassium channels [7]: capable of directly activating potassium channels | PDE7 inhibition (PDE7): inhibits PDE7 | concentrations showing inhibitory effect on PDE1 (PDE1 of bovine tissue): higher than 30 μM | maximum vasodilating effect (human saphenous vein; without functional endothelium): 30%

— patent US20090270495A1, “Inhibitors of Phosphodiesterase Types 1 To 5 Based on Dioclein, Floranol, and Analogs Thereof” (priority 2005, published 2009)
